1 compound from US10881703B2, “Composition for use in the treatment of intestinal alterations” (priority 2016, dated 2021) can be followed below.

For the test, the system named is THP-1 cells and intestinal epithelial cells (CacoGoblet). Briefly: Monocyte-epithelial cell adhesion assay (THP-1 cells on CacoGoblet). As to conditions: inflamed mucosa (IL1 beta 10 ng/ml overnight), 24 hours treatment. It counts as cell-based, human. The method, then: The CacoGoblet cells were pre-treated with 10 ng/ml of IL1 beta overnight. […] A parallel treatment was carried out with the reference molecule etacortilen (Dexamethasone Sodium Phosphate) at 0.15% in order to study the overcoming of the inflammatory state of the mucosa. […] Once the non-adherent cells had been removed, the residual surface fluorescence of the THP-1 cells was evaluated under a microscope. The anti-inflammatory activity of the various compounds at the intestinal level was assessed in a static assay using the reduction in the cellular adhesion of THP-1 on CacoGoblet as an endpoint parameter. • 2) Ability of Cranberries to Prevent Adhesion of E. Coli to Mucosa The CacoGoblet cells were treated overnight with IL-1beta, the pro-inflammatory cytokine, prior to the adhesion assay in order to create inflamed mucosa. The treated monolayers were then treated with the products for 24 hours. The marked THP-1 cells were added on top of the CacoGoblet in each well. The THP-1 cells were marked with the fluorescent dye chloromethylfluorescein diacetate (CMFDA; Invitrogen). After incubation, the monolayer was gently washed to remove the non-adherent THP-1 cells. The adherent cells marked with the fluorescent dye were viewed under a fluorescence microscope. […]

Turning to `C[C@@H]1C[C@H]2[C@@H]3CCC4=CC(=O)C=C[C@]4(C)[C@@]3(F)[C@@H](O)C[C@]2(C)[C@@]1(O)C(=O)COP(=O)(O)O` [etacortilen, Dexamethasone Sodium Phosphate], the “adhesion of THP-1 cells” value is recorded as “significant decrease in the adhesion of THP-1 cells”.
